Data published in patent publication US8012943B2, “Antibacterial agents” (Optimer Pharmaceuticals, Inc., priority 2003, dated 2011).
Values after ≈ are worked out from the molar mass of the structure shown. Like-named read-outs stand apart in the source and are kept apart here.

Key:
Assay in all cases: MIC, NCCLS broth microdilution
E. Coli ATCC 25922 = format: cell-based; conditions: Escherichia coli, ATCC25922, Table 1
Description: (§1) Antibacterial activity of the novel Formula 1 and Formula 2 compounds and their pharmaceutically acceptable addition salts with organic and inorganic acids was determined against a series of microorganisms from the American Type Culture Collection (ATCC) and clinical Streptococcus sp isolates. The ATCC strains included: Staphylococcus aureus, Enterococcus faecium, Klebsiella pneumoniae, Escherichia coli, Salmonella typhimurium, Streptococcus pneumoniae, Streptococcus pyogenes, and Haemophilus influenzae. The clinical strains included macrolide resistant Streptococcus sp. with either Erm or MefA resistance mechanisms. The clinical isolates were identified using the API biochemical identification system (BioMerieux).
(§2) Antimicrobial susceptibility testing was performed according to recommendations by the National Committee for Clinical Laboratory Standards (NCCLS M100-S12, M7-A5). Briefly, two fold dilutions of compounds were made in microtiter plates. Each well of the microtiter plate was inoculated with test microorganisms at a final density 5×10^5 colony forming units (cfu)/mL. The microtiter plates were incubated at 35° C. under aerobic conditions, except for H. influenzae and S. pyogenes which were incubated at 5% CO2. The minimal inhibitory concentration (MIC) was defined as the lowest concentration of compound that inhibited growth. The results of represented examples of this invention on standard test microorganisms and clinical isolates in comparison with azithromycin and telithromycin are shown in Table 1 and Table 2.

E. faecium ATCC 19434 = format: cell-based; conditions: Enterococcus faecium, ATCC19434, Table 1
Description: as §1, §2

K. Pneumonia 13883 = format: cell-based; conditions: Klebsiella pneumoniae, Table 1
Description: as §1, §2

[1] = test system: S. aureus ATCC 29213 (MSSA) MLS-S; format: cell-based; conditions: Staphylococcus aureus, Table 1
Description: as §1, §2

S. aureus MRSA 33591 = format: cell-based; conditions: Staphylococcus aureus, Table 1
Description: as §1, §2

S. pyogenes ATCC 19615 = format: cell-based; conditions: Streptococcus pyogenes, ATCC19615, 5% CO2, Table 1
Description: as §1, §2

[2] = test system: S. Typhimurium ATCC 14028; format: cell-based; conditions: Salmonella enterica, Table 1
Description: as §1
as §2, with “growth.” for “growth. The results of represented examples of this invention on standard test microorganisms and clinical isolates in comparison with azithromycin and telithromycin are shown in Table 1 and Table 2.”

S. pneumoniae 163(MefA) = format: cell-based, Streptococcus pneumoniae
Description: as §1, §2

S. pneumoniae 303(ErmB) = format: cell-based, Streptococcus pneumoniae
Description: as §1, §2

S. pneumoniae ATCC 49619 = format: cell-based, Streptococcus pneumoniae
Description: as §1, §2

H. influenzae ATCC 49247 = format: cell-based, Haemophilus influenzae; conditions: 5% CO2
Description: as §1, §2

S. pneumoniae 5032 = format: cell-based; conditions: Streptococcus pneumoniae, Table 2
Description: as §1, §2

S. pyogenes 1721 = format: cell-based; conditions: Streptococcus pyogenes, Table 2
Description: as §1, §2

S. pyogenes 1850 = format: cell-based; conditions: Streptococcus pyogenes, Table 2
Description: as §1, §2

S. pyogenes 3029 = format: cell-based; conditions: Streptococcus pyogenes, Table 2
Description: as §1, §2

S. pyogenes 3262 = format: cell-based; conditions: Streptococcus pyogenes, Table 2
Description: as §1, §2

[3] = test system: S. pneumoniae 3773 (Erm B); format: cell-based, Streptococcus pneumoniae
Description: as §1, §2

[4] = Streptococcus pneumoniae, S. pneumoniae 163(MefA), Table 1, read-out: MIC
[5] = Streptococcus pneumoniae, S. pneumoniae 303(ErmB), Table 1, read-out: MIC
[6] = Streptococcus pneumoniae, ATCC49619, Table 1, read-out: MIC
[7] = Haemophilus influenzae, ATCC49247, H. influenzae ATCC 49247, Table 1, read-out: MIC
[8] = Streptococcus pneumoniae, S. pneumoniae 163 (Mef A), Table 2, read-out: MIC
[9] = Streptococcus pneumoniae, S. pneumoniae ErmB 303, Table 2, read-out: MIC
[10] = Streptococcus pneumoniae, Table 2, read-out: MIC
[11] = Streptococcus pneumoniae, ATCC49619, Table 2, read-out: MIC
[12] = Haemophilus influenzae, ATCC49247, H. influenzae ATCC 49247, Table 2, read-out: MIC

Compound | MIC (E. Coli ATCC 25922) [µg/mL] | MIC (E. faecium ATCC 19434) [µg/mL] | MIC (K. Pneumonia 13883) [µg/mL] | MIC [1] [µg/mL] | MIC (S. aureus MRSA 33591) [µg/mL] | MIC (S. pyogenes ATCC 19615) [µg/mL] | MIC [2] [µg/mL] | MIC (S. pneumoniae 163(MefA); [4]) [µg/mL] | MIC (S. pneumoniae 303(ErmB); [5]) [µg/mL] | MIC (S. pneumoniae ATCC 49619; [6]) [µg/mL] | MIC (H. influenzae ATCC 49247; [7]) [µg/mL] | MIC (S. pneumoniae 5032) [µg/mL] | MIC (S. pyogenes 1721) [µg/mL] | MIC (S. pyogenes 1850) [µg/mL] | MIC (S. pyogenes 3029) [µg/mL] | MIC (S. pyogenes 3262) [µg/mL] | MIC (S. pneumoniae 163(MefA); [8]) [µg/mL] | MIC (S. pneumoniae 303(ErmB); [9]) [µg/mL] | MIC [3, 10] [µg/mL] | MIC (H. influenzae ATCC 49247; [12]) [µg/mL] | other results
CC[C@H]1OC(=O)[C@H](C)[C@@H](O[C@H]2C[C@@](C)(OC)[C@@H](O)[C@H](C)O2)[C@H](C)[C@@H](O[C@@H]2O[C@H](C)C[C@H](N(C)C)[C@H]2O)[C@](C)(O)C[C@@H](C)CN(C)[C@H](C)[C@@H](O)[C@]1(C)O [Azithromycin, reference compound] | 8 (≈ 10.7 µM) | 4 (≈ 5.34 µM) | 8 (≈ 10.7 µM) | 1 (≈ 1.34 µM) | > 64 | 1 (≈ 1.34 µM) | 4 (≈ 5.34 µM) | ≤ 0.125 | 0.5 (≈ 0.668 µM) | ≤ 0.125 | 2 (≈ 2.67 µM) | – | – | – | – | – | – | – | – | – | –
CC[C@H]1OC(=O)[C@H](C)C(=O)[C@H](C)[C@@H](OC2OC(C)CC(N(C)C)C2O)[C@@](C)(OC)C[C@@H](C)C(=O)[C@H](C)[C@H]2N(CCCCn3cc(Cn4nnc5ccccc54)nn3)C(=O)O[C@]12C (stereo partly drawn) [OP-1007, 11-N-[4-(4-Benzotriazol-1-ylmethyl-[1,2,3]triazol-1-yl)-butyl]-6-O-methyl-5-O-dasosaminyl-3-oxo-erythronolide A, 11,12-carbamate] | 64 (≈ 73.8 µM) | ≤ 0.125 | 32 (≈ 36.9 µM) | ≤ 0.125 | > 64 | ≤ 0.125 | 8 (≈ 9.23 µM) | ≤ 0.125 | > 64 | ≤ 0.125 | 0.5 (≈ 0.577 µM) | – | – | – | – | – | – | – | – | – | –
CC[C@H]1OC(=O)[C@@](C)(F)C(=O)[C@H](C)[C@@H](O[C@@H]2O[C@H](C)C[C@H](N(C)C)[C@H]2O)[C@](C)(OC)C[C@@H](C)C(=O)[C@H](C)[C@H]2N(CCCCn3cc(-c4cccc(N)c4)nn3)C(=O)O[C@]12C [OP-1068, 11-N-[4-[4-(3-aminophenyl)-[1,2,3]triazol-1-yl]-butyl]-5-desosaminyl-3-oxo-2-fluoro-erythronolide A, 11,12-cyclic carbamate] | – | – | – | – | – | – | – | – | – | – | – | 0.5 (≈ 0.592 µM) | 0.5 (≈ 0.592 µM) | ≤ 0.125 | ≤ 0.125 | 0.5 (≈ 0.592 µM) | ≤ 0.125 | ≤ 0.125 | 0.5 (≈ 0.592 µM) | 2 (≈ 2.37 µM) | MIC ([3]; Table 2): 1 µg/mL (≈ 1.18 µM); MIC (S. pneumoniae ATCC 49619; [11]): ≤ 0.125 µg/mL; MIC (H. influenzae ATCC 49247; H. influenzae ATCC 49247, Table 2): 4 µg/mL (≈ 4.73 µM)
CC[C@H]1OC(=O)[C@H](C)C(=O)[C@H](C)[C@@H](OC2OC(C)C(O)C(N(C)C)C2O)[C@@](C)(OC)C[C@@H](C)C(=O)[C@H](C)[C@H]2N(CCCCn3cc(Cn4nnc5ccccc54)nn3)C(=O)O[C@]12C (stereo partly drawn) [OP-1071, 11-N-[4-(4-Benzotriazol-1-ylmethyl-[1,2,3]triazol-1-yl)-butyl]-6-O-methyl-5-mycaminosyl-3-oxo-erythronolide A, 11,12-carbamate] | > 64 | ≤ 0.125 | > 64 | 0.25 (≈ 0.283 µM) | > 64 | ≤ 0.125 | > 64 | 0.5 (≈ 0.566 µM) | > 64 | ≤ 0.125 | 2 (≈ 2.26 µM) | – | – | – | – | – | – | – | – | – | –
CC[C@H]1OC(=O)[C@H](C)C(=O)[C@H](C)[C@@H](OC(=O)C2CN(C(=O)OC(C)(C)C)C(C)(C)O2)[C@@](C)(OC)C[C@@H](C)C(=O)[C@H](C)[C@H]2N(CCCCn3cnc(-c4cccnc4)c3)C(=O)O[C@]12C (stereo partly drawn) [OP-1086] | > 64 | 4 (≈ 4.53 µM) | > 64 | 4 (≈ 4.53 µM) | > 64 | 32 (≈ 36.3 µM) | > 64 | ≤ 0.125 | 0.25 (≈ 0.283 µM) | – | > 64 | – | – | – | – | – | – | – | – | – | –
CC[C@H]1OC(=O)[C@@](C)(F)C(=O)[C@H](C)[C@@H](OC2OC(COC(C)=O)CC(N(C)C)C2O)[C@@](C)(OC)C[C@@H](C)C(=O)[C@H](C)[C@H]2N(CCCCn3cc(-c4cccc(N)n4)nn3)C(=O)O[C@]12C (stereo partly drawn) [OP-1356, 11-N-{4-[4-(6-Amino-pyridin-2-yl)-[1,2,3]triazol-1-yl]-butyl}-5-(3-dimethylamine-4-deoxy-6-O-acetyl-glucopyranosyl)-3-oxo-2-fluoro-erythronolide A,-11,12-cyclic carbamate] | – | – | – | – | – | – | – | – | – | – | – | 1 (≈ 1.11 µM) | 4 (≈ 4.42 µM) | 0.25 (≈ 0.277 µM) | 1 (≈ 1.11 µM) | 4 (≈ 4.42 µM) | ≤ 0.125 | ≤ 0.125 | 0.5 (≈ 0.553 µM) | 1 (≈ 1.11 µM) | MIC (S. pneumoniae ATCC 49619; [11]): ≤ 0.125 µg/mL
CC[C@H]1OC(=O)[C@@](C)(F)C(=O)[C@H](C)[C@@H](OC2OC(C)CC(N(C)C)C2O)[C@@](C)(OC)C[C@@H](C)C(=O)[C@H](C)[C@H]2N(CCCCn3cc(-c4cccc(N)n4)nn3)C(=O)O[C@]12C (stereo partly drawn) [OP-1357, 11-N-{4-[4-(6-Amino-pyridin-2-yl)-[1,2,3]triazol-1-yl]-butyl}-5-desosaminyl-3-oxo-2-fluoro-erythronolide A,-11,12-cyclic carbamate] | – | – | – | – | – | – | – | – | – | – | – | 1 (≈ 1.18 µM) | 2 (≈ 2.36 µM) | 0.25 (≈ 0.296 µM) | 1 (≈ 1.18 µM) | 1 (≈ 1.18 µM) | ≤ 0.125 | ≤ 0.125 | 1 (≈ 1.18 µM) | 4 (≈ 4.73 µM) | MIC (S. pneumoniae ATCC 49619; [11]): ≤ 0.125 µg/mL
CC[C@H]1OC(=O)[C@H](C)C(=O)[C@H](C)[C@@H](O[C@@H]2O[C@H](C)C[C@H](N(C)C)[C@H]2O)[C@](C)(OC)C[C@@H](C)C(=O)[C@H](C)[C@H]2N(CCCCn3cnc(-c4cccnc4)c3)C(=O)O[C@]12C [Telithromycin, reference compound] | 16 (≈ 19.7 µM) | ≤ 0.125 | 16 (≈ 19.7 µM) | ≤ 0.125 | > 64 | ≤ 0.125 | 4 (≈ 4.93 µM) | ≤ 0.125 | ≤ 0.125 | ≤ 0.125 | 2 (≈ 2.46 µM) | 1 (≈ 1.23 µM) | 64 (≈ 78.8 µM) | 8 (≈ 9.85 µM) | 16 (≈ 19.7 µM) | 32 (≈ 39.4 µM) | – | – | 1 (≈ 1.23 µM) | 4 (≈ 4.93 µM) | MIC (S. pneumoniae 163(MefA); S. pneumoniae 163 (Mef A), Table 2): <=0.125 mcg/mL; MIC (S. pneumoniae 303(ErmB); S. pneumoniae ErmB 303, Table 2): <=0.125 mcg/mL; MIC (S. pneumoniae ATCC 49619; Table 2): <=0.125 mcg/mL
